# According to patent US20070299089A1, “Use of A2A Adenosine Receptor Agonists in the Treatment of Ischemia” (CV THERAPEUTICS, INC., priority 2006, published 2007):
# Assays:
# [1] = tested on: mouse isolated hearts; assay: Coronary vascular resistance in Langendorff-perfused isolated hearts, Protocol 1 (CPP lowered to 30 mmHg for 20 min, then restored to 65 mmHg); details: for increase in CVR during lowering of CPP: n=6, p<0.001
# Procedure: (§1) The objective of this example was to determine whether the selective and stable A2A agonist, regadenoson, can prevent or modify coronary microcirculation vasoconstriction during ischemia. To this purpose, in 60 mouse isolated hearts perfused in Langendorff configuration coronary vascular resistance (CVR) was continuously monitored for 70 min during various interventions using two different protocols. In hearts (n=9) perfused at a constant coronary perfusion pressure (CPP) of 65 mmHg CVR remained stable throughout the 70 min of the experiment.
# In Protocol 1, CPP was lowered to 30 mmHg at 20 min, maintained for the following 20 min and restored to 65 mmHg for the remaining 30 min. In untreated hearts (n=12), lowering CPP for 20 min increased CVR up to a maximum of 191%±9 above baseline (P<0.001).
# [2] = tested on: mouse isolated hearts; assay: Coronary vascular resistance in Langendorff-perfused isolated hearts, Protocol 2 (CPP lowered to 30 mmHg and maintained for 50 min); details: n=6
# Procedure: as §1
# In Protocol 2, CPP was lowered to 30 mmHg at 20 min and maintained for the remaining 50 min. In untreated hearts (n=9), the sustained lowering of CPP was accompanied by a progressive rise in CVR up to the end of the experiment when it reached a maximum of 240%±21 above baseline. Addition of regadenoson (10 nM) to the perfusate either at 10 (n=6) or 30 (n=6) min after lowering CPP caused a rapid and progressive vasodilation thereby bringing CVR to baseline values within 10 min. In summary, the isolated heart reacts to lowering of CPP with a progressive and severe vasoconstriction that can be prevented by pre-treatment with an A2A agonist.
# [3] = Solubility in water; assay type: physicochemical
# Procedure: In one aspect of this invention, mammalian ischemia is treated with a pharmaceutical composition including CVT-3146—regadenoson. Regadenoson has solubility in water of about 50 micrograms/mL. Therefore, regadenoson can be dissolved and administered in water so long as the desired weight amount of regadenoson can be administered in an acceptable volume. For example, a dose of about 400 micrograms can be administered in 8 mL of water. If this volume is too great for administration purposes, or if the pharmaceutical composition will be stored at other than room temperature (RT), then additional ingredients can be added to the composition to increase the solubility of regadenoson in the composition and/or to provide the resulting pharmaceutical composition with other improved properties such as improved stability and storage properties.
compound,measurement,setting,value
"CNC(=O)c1cnn(-c2nc(N)c3ncn([C@@H]4O[C@H](CO)[C@@H](O)[C@H]4O)c3n2)c1 [regadenoson, (1-{9-[(4S,2R,3R,5R)-3,4-dihydroxy-5-(hydroxymethyl)oxolan-2-yl]-6-aminopurin-2-yl}pyrazol-4-yl)-N-methylcarboxamide]",maximum increase in CVR above baseline during lowering of CPP,"[1]; regadenoson 3 nM, CPP 30 mmHg for 20 min, n=6, untreated hearts 191%±9",131%±15
same,elevated CVR remaining after restoring CPP to 65 mmHg,"[1]; regadenoson 3 nM, untreated hearts 153%±10 above baseline",significantly reduced
same,increase in CVR during lowering of CPP,"[1]; regadenoson 10 nM, CPP 30 mmHg for 20 min",abolished the increase in CVR
same,elevated CVR remaining after restoring CPP to 65 mmHg,"[1]; regadenoson 10 nM, p<0.01",abolished
same,increase in CVR during lowering of CPP,"[1]; regadenoson 30 nM, CPP 30 mmHg for 20 min",abolished the increase in CVR
same,elevated CVR remaining after restoring CPP to 65 mmHg,"[1]; regadenoson 30 nM, p<0.01",abolished
same,time to bring CVR to baseline values,[2]; regadenoson 10 nM added to perfusate 10 min after lowering CPP,≤ 10 min
same,time to bring CVR to baseline values,[2]; regadenoson 10 nM added to perfusate 30 min after lowering CPP,≤ 10 min
same,solubility,[3],~50 µg/mL
